Measured values taken from article PMC9124866, “Structure-Activity Relationships of Dopamine Transporter Pharmacological Chaperones” (Frontiers in Cellular Neuroscience, 2022).

Molecular target: YFP-HA-βlac-DAT (Homo sapiens, UniProt Q01959)
Experiment: β-lactamase (βlac) surface expression assay
Type: cell-based
Conditions: HEK293, HEK cells expressing YFP-HA-βlac-DAT, overnight (16 h) incubation, up to 100 μM, normalized to vehicle; assumed effective EMax; read-out: EMax (%), WT DAT surface expression
Protocol: The βlac surface expression assay was performed by following the method outlined in [Lam et al. (2013)] and [Beerepoot et al. (2015], [2016)]. The assay substrate nitrocefin (BD biosciences) was dissolved in dimethyl sulfoxide (DMSO) at a concentration of 10 mM and frozen at −80°C. Immediately before use, it was thawed and diluted to a final concentration of 100 μM in phosphate buffered saline (PBS). Cells (1 × 10^5/well) were seeded into a poly-D-lysine-coated 48-well plate and incubated for 24 h, prior to drug treatment. Drugs were added to individual wells at varying concentrations and incubated for 16 h. Subsequently, the media was aspirated, and the cells were washed twice with PBS. After removal of the final PBS wash, 200 μL of the nitrocefin solution was added to each well and the absorbance was immediately read. The EPOCH microplate spectrophotometer (BioTek) was used to measure absorbance (486 nm) for each well every minute for 30 min. The rate of reaction (slope of the curve) was used as the readout for the assay ([Beerepoot et al., 2015]). To determine suitable concentration ranges for each drug, they were dissolved in PBS or DMSO at the highest concentration possible. From here, the solutions were serial diluted 1/10 to yield 8 different concentrations. βLAC cells were then treated with the varying drug concentrations and cell viability was recorded using light microscopy. For additional measure, nitrocefin was added and the absorbance was read. For certain cases, Trypan Blue was used to quantitatively differentiate increased cell death from reduced cell division. […] Five or six doses were generally used in subsequent dosing experiments, starting at the highest non-toxic concentration.
Data analysis was performed using GraphPad Prism (GraphPad Software, La Jolla, CA). Linear regression analysis was performed on βLAC time points to determine the slope, thus the rate of reaction, for comparison. Furthermore, the slope was also used to determine the degree of dopamine uptake in the dopamine uptake assays. Non-linear regression, fitting to the log(agonist) vs. response and log(inhibitor) vs. response model curve, was used to determine dose-response relationships of surface expression and uptake assays, respectively. One-way ANOVA with Dunnett’s post hoc-test was used for the β-lactamase assay and one-way ANOVA with Bonferroni correction was used for western blot analysis.
Among these were RTI-1, RTI-2, RTI-5, RTI-6, RTI-11, RTI-20, and PAL-1007. […] The EMax values of all the analyzed drugs are included in Figure 1.
The pharmacological chaperone ability of the 15 ibogaine and tryptamine analogs, shown in Figure 3, were measured using the βlac surface expression assay. HEK cells expressing YFP-HA-βlac-DAT were incubated overnight with these compounds at concentrations varying by log and half-log dilutions, starting at 100 μM final concentration. […] Furthermore, it was important to determine whether the β-carboline analogs could also elicit a chaperone effect because they are not classified as DAT ligands ([Cao et al., 2007]). […] Removing the nitrogen from the ring reduced efficacy as observed with frovatriptan (103 ± 1.4%). […] Evodiamine (54 ± 1.7%) had no chaperone ability and caused a substantial reduction in the surface expression of DAT. Dose-response curves were generated to assess the pharmacological chaperone potencies of select compounds (Figure 4).

Chain of YFP-HA-βlac-DAT (Q01959 1-171 limits assumed): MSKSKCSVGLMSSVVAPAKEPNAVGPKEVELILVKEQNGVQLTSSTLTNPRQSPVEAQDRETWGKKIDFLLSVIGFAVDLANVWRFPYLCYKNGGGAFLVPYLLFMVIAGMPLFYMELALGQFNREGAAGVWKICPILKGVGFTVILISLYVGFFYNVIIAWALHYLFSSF
Chain of YFP-HA-βlac-DAT (Q01959 237-620 limits assumed): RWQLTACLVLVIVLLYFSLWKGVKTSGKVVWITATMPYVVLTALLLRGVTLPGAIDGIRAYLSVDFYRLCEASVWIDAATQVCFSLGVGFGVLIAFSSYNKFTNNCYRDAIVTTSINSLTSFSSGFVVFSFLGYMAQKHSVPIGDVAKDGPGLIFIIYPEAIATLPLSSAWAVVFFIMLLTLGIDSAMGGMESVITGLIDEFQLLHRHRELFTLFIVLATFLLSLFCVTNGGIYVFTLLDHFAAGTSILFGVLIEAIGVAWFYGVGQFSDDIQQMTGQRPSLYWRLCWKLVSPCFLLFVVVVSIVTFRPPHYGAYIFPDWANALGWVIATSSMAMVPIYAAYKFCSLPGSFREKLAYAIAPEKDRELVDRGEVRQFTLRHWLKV

| Compound | Emax [%] |
| --- | --- |
| COc1ccc2[nH]c3c(c2c1)CCN(C)CC3 [Ibogainealog, ibogainealog] | 169 ± 13.7 |
| CN1CCc2[nH]c3ccccc3c2CC1 [Ibogaminalog] | 175 ± 12.9 |
| CN1CCc2[nH]c3ccc(O)cc3c2CC1 [Noribogainalog, noribogainalog] | 185 ± 17.9 |
| CC(NC1CC1)C(=O)c1cccc(Cl)c1 (centres unmarked) [PAL-433] | 93 ± 10.4 |
| CC(NC1CC1)C(=O)c1cccc(Br)c1 (centres unmarked) [PAL-586] | 93 ± 5.8 |
| CCCN(CCC)CCc1c[nH]c2ccc(OC)cc12 [PAL-709] | 97 ± 7.2 |
| COc1cccc(C(=O)C(C)NC2CC2)c1 (centres unmarked) [PAL-789] | 93 ± 10.6 |
| CC(NC1CC1)C(=O)c1ccc(F)c(Cl)c1 (centres unmarked) [PAL-819] | 90 ± 5 |
| CC(NC1CCC1)C(=O)c1ccccc1 (centres unmarked) [PAL-933] | 114 ± 2.3 |
| Cc1ccc(C(=O)C(C)N(C)Cc2ccccc2)cc1 (centres unmarked) [PAL-945] | 85 |
| CC(NC1CCC1)C(=O)c1cccc(Cl)c1 (centres unmarked) [PAL-1007] | 136 ± 9.1 |
| CC(NC1CCC1)C(=O)c1cccc(F)c1 (centres unmarked) [PAL-1008] | 96 ± 7.3 |
| CNC(C)C(=O)c1cccc(C)c1 (centres unmarked) [PAL-1101] | 105 ± 3.6 |
| C[C@@H](NC1CCC1)C(=O)c1cccc(Cl)c1 [PAL-1132] | 110 |
| C[C@H](NC1CCC1)C(=O)c1cccc(Cl)c1 [PAL-1134] | 98 |
| CC(NC1CC1)C(=O)c1cccc(C(F)(F)F)c1 (centres unmarked) [PAL-1178] | 92 ± 1.2 |
| Cc1ccc(C(=O)C(C)N)cc1 (centres unmarked) [PAL-1270] | 104 ± 2.3 |
| CC(NC1CCC1)C(=O)c1c[nH]c2ccccc12 (centres unmarked) [PAL-1407] | 98 ± 3.9 |
| Cc1cccc(C(=O)C(C)NC2CCC2)c1 (centres unmarked) [PAL-1411] | 110 ± 4.5 |
| CC(NC1CCC1)C(=O)c1ccc2c(c1)OCO2 (centres unmarked) [PAL-1414] | 102 |
| CC(C)N(CCc1c[nH]c2cccc(O)c12)C(C)C [PAL-1416] | 127 ± 6.6 |

| Compound | Emax [%] |
| --- | --- |
| CC(NC(C)(C)C)C(=O)c1ccccc1 (centres unmarked) [PAL-1463] | 117 |
| COc1cccc(C(=O)C(C)NC(C)(C)C)c1 (centres unmarked) [PAL-1465] | 91 |
| CC(NC(C)(C)C)C(=O)c1cccc(F)c1 (centres unmarked) [PAL-1466] | 100 |
| CC(C)NC(C)C(=O)c1cccc(Cl)c1 (centres unmarked) [PAL-1467] | 100 ± 4 |
| CC(Cc1cccc(Cl)c1)NC(C)(C)C (centres unmarked) [PAL-1468] | 117 |
| CC(NC(C)(C)C)C(=O)c1cccc(Br)c1 (centres unmarked) [RTI-1] | 161 ± 2.7 |
| CC(NC(C)(C)C)C(=O)c1ccc(Br)cc1 (centres unmarked) [RTI-2] | 127 ± 2.6 |
| CC(NC(C)(C)C)C(=O)c1ccc(Cl)cc1 (centres unmarked) [RTI-3] | 113 ± 6.2 |
| CC(NC(C)(C)C)C(=O)c1ccc(Cl)c(Cl)c1 (centres unmarked) [RTI-4] | 110 ± 5.7 |
| Cc1cccc(C(=O)C(C)NC(C)(C)C)c1 (centres unmarked) [RTI-6] | 134 ± 9.6 |
| CC(C(=O)c1cccc(Cl)c1)N1CCCCC1 (centres unmarked) [RTI-7] | 102 ± 3.9 |
| CC(C(=O)c1cccc(Cl)c1)N(C)C (centres unmarked) [RTI-8] | 107 ± 6.3 |
| CC(C(=O)c1cccc(Cl)c1)N(C)C(C)(C)C (centres unmarked) [RTI-9] | 87 ± 14.6 |
| CCC(NC(C)(C)C)C(=O)c1cccc(Cl)c1 (centres unmarked) [RTI-11] | 131 ± 3.7 |
| CC(NC(C)(C)C)C(=O)c1ccc(F)c(F)c1 (centres unmarked) [RTI-13] | 99 ± 4.3 |
| CC(NC(C)(C)C)C(=O)c1cc(Cl)cc(Cl)c1 (centres unmarked) [RTI-17] | 78 ± 2.8 |
| CC1NC(C)(C)COC1(O)c1cc(F)cc(F)c1 (centres unmarked) [RTI-18] | 122 |
| Cc1ccc(C(=O)C(C)NC(C)(C)C)cc1Cl (centres unmarked) [RTI-20] | 147 ± 8 |
| CC1NC(C)(C)COC1(O)c1cc(Cl)cc(Cl)c1 (centres unmarked) [RTI-21] | 103 ± 3.7 |
| COc1ccc2c3c([nH]c2c1)CCN(C)CC3 [Tabernanthalog, tabernanthalog] | 179 ± 9.1 |
| NCCc1c[nH]c2ccccc12 [Tryptamine, tryptamine, reference compound] | 104 ± 1.6 |

Same assay, conditions: HEK293, HEK cells expressing YFP-HA-βlac-DAT, overnight incubation, normalized to vehicle; read-out: EMax (%), WT DAT surface expression

| Compound | Emax [%] |
| --- | --- |
| CN[C@@H](C)[C@H](O)c1ccccc1 [Ephedrine, ephedrine, reference compound] | 128 ± 4.7 |

Same assay, conditions: HEK293, read-out: EMax (%), WT DAT surface expression, HEK cells expressing YFP-HA-βlac-DAT, overnight (16 h) incubation, up to 100 μM, normalized to vehicle; assumed effective EMax

| Compound | Emax [%] |
| --- | --- |
| CC1NC(C)(C)COC1(O)c1cccc(Cl)c1 (centres unmarked) [6-Hydroxybupropion, 6-hydroxybupropion, reference compound] | 148 ± 5.4 |
| CN1CCc2[nH]c3ccc(F)cc3c2CC1 [Fluorogainalog, fluorogainalog] | 219 ± 29 |
| CN[C@@H]1CCc2[nH]c3ccc(C(N)=O)cc3c2C1 [Frovatriptan, frovatriptan, reference compound] | 103 ± 1.4 |
| CC[C@H]1C[C@@H]2C[C@H]3c4[nH]c5ccccc5c4CCN(C2)[C@@H]13 [Ibogamine, reference compound] | 202 ± 7.1 |
| COc1ccc2[nH]c3c(c2c1)CCNC3 [Pinoline, pinoline, reference compound] | 141 ± 4.4 |
| CC(CNC(C)(C)C)C(=O)c1cccc(Cl)c1 (centres unmarked) [RTI-10] | 36 ± 1.4 |
| COc1ccc2c3c([nH]c2c1)C(C)NCC3 (centres unmarked) [Tetrahydroharmine, tetrahydroharmine] | 137 ± 6.8 |

Same assay, conditions: HEK cells expressing YFP-HA-βlac-DAT, overnight (16 h) incubation, up to 100 μM, normalized to vehicle; assumed effective EMax

| Compound | EMax (%), WT DAT surface expression [%] |
| --- | --- |
| evodiamine [reference compound] | 54 ± 1.7 |

Molecular target: T1, WT DAT (YFP-HA-DAT) (Homo sapiens, UniProt Q01959)
T1 construct: expressed in transfected cells; host or cells: HEK293
T1 sequence (Q01959 whole entry): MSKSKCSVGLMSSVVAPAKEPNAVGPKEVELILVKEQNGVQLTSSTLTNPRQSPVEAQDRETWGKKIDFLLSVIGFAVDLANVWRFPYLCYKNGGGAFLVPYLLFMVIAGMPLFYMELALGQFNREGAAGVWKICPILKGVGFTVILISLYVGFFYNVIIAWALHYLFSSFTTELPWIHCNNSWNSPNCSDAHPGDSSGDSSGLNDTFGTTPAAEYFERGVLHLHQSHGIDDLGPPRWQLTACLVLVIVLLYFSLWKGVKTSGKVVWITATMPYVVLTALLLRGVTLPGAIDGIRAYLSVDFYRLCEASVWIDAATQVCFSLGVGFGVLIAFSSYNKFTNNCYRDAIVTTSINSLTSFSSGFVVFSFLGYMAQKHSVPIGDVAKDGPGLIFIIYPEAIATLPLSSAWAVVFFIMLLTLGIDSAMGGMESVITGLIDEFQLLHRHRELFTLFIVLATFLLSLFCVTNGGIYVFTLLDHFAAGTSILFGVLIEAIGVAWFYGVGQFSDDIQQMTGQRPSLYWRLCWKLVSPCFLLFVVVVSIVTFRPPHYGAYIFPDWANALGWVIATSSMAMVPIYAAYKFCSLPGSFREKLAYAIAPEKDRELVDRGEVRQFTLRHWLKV
Experiment: Western blot of mature WT DAT protein levels
Type: cell-based
Conditions: overnight 100 μM
Protocol: (§1) Cells (1 × 10^6 cells/well) were seeded onto a 6-well plate and incubated for 24 h. Cells were then treated with drugs and incubated for 16 h. After the incubation period, cells were lysed in RIPA buffer supplemented with protease inhibitors (working concentrations: pepstatin A, 5 μg/mL; leupeptin, 10 μg/mL; aprotinin, 1.5 μg/mL; benzamidine, 0.1 μg/mL; PMSF, 0.1 mM) on ice. At 4°C, cell lysates were gently shaken for 15 min followed by centrifugation at 15,000 rpm for 15 min to pellet debris. The Pierce BCA protein assay kit (Thermo Fisher Scientific, Canada) was used to determine the protein concentration of the supernatant. To reach a concentration of 40 μg of protein per 20 μL, samples were diluted in fresh RIPA buffer with 12.5% Laemmli sample buffer and 2.5% β-Mercaptoethanol prior to being heated to 55°C. The protein was then loaded on a 7.5 or 10% SDS-PAGE gel and run at 100 V for approximately an hour or until the dye front reached the bottom of the gel. Next, protein was transferred to a PVDF membrane at 22 V for 16 h or 100 V for 1 h. Blots were blocked with LI-COR blocking buffer for 1 h and incubated for 1 h at room temperature with rabbit anti-GFP (1:1,000 dilution; Life Technologies, cat#A11122). After washing three times with TBST, blots were incubated with goat anti-rabbit IRDye-680RD secondary antibody (1:15,000; LI-COR, cat#926-68071). As a loading control, blots were incubated with mouse anti-GAPDH (1:5,000, Sigma-Aldrich, Canada, cat#G8795) prior to secondary antibody goat anti-mouse IRDye-800GR (1:5,000 dilution, Rockland, Limerick, PA, cat#610-132-007). All antibodies were diluted in LI-COR blocking buffer. Additionally, REVERT total protein staining (LI-COR, Lincoln, NE) was used as a loading control. […] Mature, fully glycosylated DAT (mDAT = 110 kDa) and immature, ER-resident DAT (iDAT = 75 kDa) were visualized using the Odyssey Imaging System (LI-COR, Lincoln, NE) and Image Studio Version 5.2 software (Supplementary Figure 1).
(§2) We next assessed whether drugs that increase DAT surface expression also increase total protein levels of DAT. Cells expressing YFP-HA-DAT were incubated with select test compounds and DAT protein levels were examined by western blot. The effects of the compounds were assessed on WT DAT and K590A DAT. The K590A mutant is a well-characterized ER-retained, trafficking-deficient DAT mutant ([Miranda et al., 2004]) that can be rescued by pharmacological chaperones ([Beerepoot et al., 2016]).
(§3) FIGURE 5 Effect of noribogaine, tetrahydroharmine, PAL-594, bicifadine, and RTI-20 on WT and K590A DAT expression. […] (B) Quantification of WT mDAT protein levels. […] (D) Quantification of K590A mDAT protein levels. […]

| Compound | mature WT DAT (mDAT) protein levels |
| --- | --- |
| Cc1ccc(C(=O)C(C)NC(C)(C)C)cc1Cl (centres unmarked) [RTI-20] | significantly increase |

Molecular target: T2, K590A DAT (Homo sapiens, UniProt Q01959, K590A)
T2 construct: expressed in transfected cells; host or cells: HEK293
T2 sequence (Q01959 whole entry K590A): as the sequence (Q01959 whole entry) above, with K590A counted along it
Experiment: Western blot of mature K590A DAT protein levels
Type: cell-based
Conditions: overnight treatment
Protocol: as §1, §2, §3

| Compound | K590A DAT (mDAT) protein levels |
| --- | --- |
| COc1ccc2c3c([nH]c2c1)C(C)NCC3 (centres unmarked) [Tetrahydroharmine, tetrahydroharmine] | statistically significant effect |
